Reference: patent US8637537B2, “Serine/threonine kinase inhibitors” (Genentech, Inc., priority 2011, dated 2014)
Structures can show the parent of a compound that is named as a salt. Where two headings read alike, the source gives them in different places.

Molecular target: T1, human recombinant GST-PAK1-KD protein (Homo sapiens, UniProt Q13153)
T1 construct: residues #249-545 of human PAK1, UniProtKP/Swiss Q13153; His6 (N); made in house; host or cells: Sf9 insect cells, pAcGP67 baculovirus expression vector
Experiment: GST-PAK1-KD (kinase domain) biochemical assay, microfluidic mobility shift
Conditions: PAK1 Ki class, read-out: Ki

T1 sequence (Q13153 249-545): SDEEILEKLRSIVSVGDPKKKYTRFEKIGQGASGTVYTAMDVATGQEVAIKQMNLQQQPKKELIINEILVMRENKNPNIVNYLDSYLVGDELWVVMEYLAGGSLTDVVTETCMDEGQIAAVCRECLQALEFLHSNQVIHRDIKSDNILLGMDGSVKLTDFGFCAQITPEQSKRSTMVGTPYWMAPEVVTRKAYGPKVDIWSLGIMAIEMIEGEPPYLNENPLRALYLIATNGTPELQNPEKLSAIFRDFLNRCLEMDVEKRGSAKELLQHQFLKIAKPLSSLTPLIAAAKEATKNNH

Compound | Ki (Table I) [nM] | Ki (Table II) [nM]
C[C@H](Nc1nccc(Nc2cc(C3CCCO3)[nH]n2)n1)c1ccc2[nH]ccc2c1 (stereo partly drawn) [I-116, N^2—((S)-1-(1H-indol-5-yl)ethyl)-N^4-(5-(tetrahydrofuran-2-yl)-1H-pyrazol-3-yl)pyrimidine-2,4-diamine] | 250 to 1000 | –
Fc1cnc(NCc2ccc3[nH]cnc3c2Cl)nc1Nc1cc(C2CC2)[nH]n1 [I-117, N^2-((4-chloro-1H-benzo[d]imidazol-5-yl)methyl)-N^4-(5-cyclopropyl-1H-pyrazol-3-yl)-5-fluoropyrimidine-2,4-diamine] | < 50 | –
c1cc(CNc2nccc(Nc3cc(C4CCCO4)[nH]n3)n2)c2cc[nH]c2c1 (stereo not drawn) [I-119, N^2-((1H-indol-4-yl)methyl)-N^4-(5-(tetrahydrofuran-2-yl)-1H-pyrazol-3-yl)pyrimidine-2,4-diamine] | 250 to 1000 | –
Fc1cnc(NCc2cccc3[nH]ccc23)nc1Nc1cc(C2CC2)[nH]n1 [I-120] | 50 to 250 | –
Cc1cc(Nc2ccnc(N[C@@H](C)c3ccc4[nH]cnc4c3)n2)n[nH]1 [I-121, (S)—N^2-(1-(1H-benzo[d]imidazol-5-yl)ethyl)-N^4-(5-methyl-1H-pyrazol-3-yl)pyrimidine-2,4-diamine] | 250 to 1000 | –
Cc1ccc2[nH]ccc2c1CNc1nccc(Nc2cc(C3CC3)[nH]n2)n1 [I-122, N^4-(5-Cyclopropyl-1H-pyrazol-3-yl)-N^2-((5-methyl-1H-indol-4-yl)methyl)pyrimidine-2,4-diamine] | 50 to 250 | –

The next lines start with the values.

Ki (Table I) [nM] | Ki (Table II) [nM] | Compound
– | < 50 | COc1c(CNc2nccc(Nc3cc(C4CC4)[nH]n3)n2)ccc2[nH]cnc12 [II-1, N^4-(5-Cyclopropyl-1H-pyrazol-3-yl)-N^2-[(4-methoxy-1H-benzimidazol-5-yl)methyl]-pyrimidine-2,4-diamine]
– | < 50 | CN(Cc1ccc2[nH]cnc2c1Cl)c1nccc(Nc2cc(OCc3ccccc3)[nH]n2)n1 [II-3, N^4-(5-Benzyloxy-1H-pyrazol-3-yl)-N^2-[(4-chloro-1H-benzimidazol-5-yl)methyl]-N^2-methyl-pyrimidine-2,4-diamine]
– | < 50 | Clc1c(CNc2nccc(Nc3cc(C4COC4)[nH]n3)n2)ccc2[nH]cnc12 [II-4, N^2-[(4-chloro-1H-benzimidazol-5-yl)methyl]-N^4-[5-(oxetan-3-yl)-1H-pyrazol-3-yl]pyrimidine-2,4-diamine, formic acid salt]
– | < 50 | CN(Cc1ccc2[nH]cnc2c1Cl)c1ncc(F)c(Nc2cc(C3COC3)[nH]n2)n1 [II-5, N^2-[(4-Chloro-1H-benzimidazol-5-yl)methyl]-5-fluoro-N^2-methyl-N^4-[5-(oxetan-3-yl)-1H-pyrazol-3-yl]pyrimidine-2,4-diamine]
– | < 50 | Clc1c(CNc2nccc(Nc3cc(OCC4CC4)[nH]n3)n2)ccc2[nH]cnc12 [II-6, N^2-(4-Chloro-1H-benzoimidazol-5-ylmethyl)-N4-(5-cyclopropylmethoxy-1H-pyrazol-3-yl)-pyrimidine-2,4-diamine]
– | < 50 | CCc1c(CNc2nccc(Nc3cc(C4CC4)[nH]n3)n2)ccc2[nH]cnc12 [II-7, N^4-(5-Cyclopropyl-1H-pyrazol-3-yl)-N^2-[(4-ethyl-1H-benzimidazol-5-yl)methyl]pyrimidine-2,4-diamine]
– | 50 to 250 | Cc1c(CNc2ncc(F)c(Nc3cc(C4CC4)[nH]n3)n2)ccc2[nH]cnc12 [II-8, N^4-(5-Cyclopropyl-1H-pyrazol-3-yl)-5-fluoro-N^2-[(4-methyl-1H-benzimidazol-5-yl)methyl]pyrimidine-2,4-diamine]
– | 50 to 250 | c1cc(CNc2nccc(Nc3cc(C4COC4)[nH]n3)n2)c2cc[nH]c2c1 [II-9, N^2-(1H-indol-4-ylmethyl)-N^4-[5-(oxetan-3-yl)-1H-pyrazol-3-yl]pyrimidine-2,4-diamine]
– | 50 to 250 | c1cncc(CN(Cc2cccc3[nH]ccc23)c2nccc(Nc3cc(C4CC4)[nH]n3)n2)c1 [II-10, N^4-(5-Cyclopropyl-1H-pyrazol-3-yl)-N^2-(1H-indol-4-ylmethyl)-N^2-(3-pyridylmethyl)pyrimidine-2,4-diamine]
